Source: paper PMC10027976, “Phylogeny-guided genome mining of roseocin family lantibiotics to generate improved variants of roseocin” (AMB Express, 2023)
Where no end group is shown, it is not given here.

Columns and labels:
[1] = tested on: M. luteus ATCC 10240; assay: MIC by micro broth-dilution method; format: cell-based, Micrococcus luteus; conditions: for MIC against M. luteus ATCC 10240: micro broth-dilution, Mueller Hinton Broth, 2 × 10^5 CFU/mL mixed 1:1 with lantibiotic, BSA-treated 96-well plates, overnight 37 °C, lowest concentration with no visible growth, Rosα (variant) with wild-type Rosβ
Procedure: (§1) The minimum inhibitory concentration of wild-type roseocin and its variants was determined with micro broth-dilution method. Sterile 96-well microtiter plates were treated with 200 µL of 1% (w/v) bovine serum albumin (BSA) in 1 × phosphate-buffered saline (PBS) solution at 37 °C for 30 min. After this, wells were washed with 1 × PBS to remove excess BSA (Ellis et al. [2020]). Log phase culture was diluted with Mueller Hinton Broth (MHB) to obtain 2 × 10^5 CFU/mL. The bacterial suspension and the lantibiotic were added to 96-well microplates at a ratio of 1:1. The microplates were incubated overnight at 37 °C. The lowest concentration at which no visible growth was observed, was considered MIC.

[2] = tested on: MSSA ATCC 25923; assay: MIC by micro broth-dilution method; format: cell-based, Staphylococcus aureus; conditions: for MIC against MSSA ATCC 25923: micro broth-dilution, Mueller Hinton Broth, 2 × 10^5 CFU/mL mixed 1:1 with lantibiotic, BSA-treated 96-well plates, overnight 37 °C, lowest concentration with no visible growth, Rosα (variant) with wild-type Rosβ
Procedure: as §1

[3] = tested on: M. luteus ATCC 10240 and methicillin-sensitive Staphylococcus aureus (MSSA) ATCC 25923; assay: MIC comparison of variants with wild-type roseocin, both strains; format: cell-based, Micrococcus luteus; Staphylococcus aureus; conditions: M. luteus ATCC 10240 and MSSA ATCC 25923, in combination with wild-type Rosβ
Procedure: as §1

[4] = tested on: M. luteus ATCC 10240; assay: Agar diffusion assay in synergism with Rosβ; format: cell-based, Micrococcus luteus; conditions: nutrient agar, leader removed with proteinase K, 4 μg, 2 μg and 1 μg with equal amount of Rosβ
Procedure: Overnight 10 mL culture of Micrococcus luteus (ATCC 10240), grown in nutrient broth, was diluted to 0.1 OD600 in the fresh 5 mL nutrient broth. The 1 μL/mL of the culture was used for the inoculation in nutrient agar before plating. The culture was added in bearable to touch media. The nutrient agar culture plates were used for checking the activity of Rosα variant peptides and wild type as a positive control, in synergism with Rosβ in a 1:1 ratio.
Alpha variant precursor peptides were cleaved with proteinase K to obtain their bioactive form, as described earlier (Singh et al. 2020) and were spotted with Rosβ in nutrient agar culture plate, in a dose-dependent manner i.e 1 µg, 2 µg, 4 µg (each).

[5] = compared with wild-type Rosα, in combination with wild-type Rosβ

Substance | MIC against M. luteus ATCC 10240 [1] [µM] | MIC against MSSA ATCC 25923 [2] [µM] | Fold change of MIC against M. luteus ATCC 10240 relative to wild-type [1, 5] | Change of MIC / inhibitory activity relative to wild-type roseocin (in words) [3] | Change of MIC / inhibitory activity relative to wild-type roseocin (in words) ([3]; listed as RosαL8W) | Fold change of MIC against MSSA ATCC 25923 relative to wild-type [2, 5] | Zone of inhibition compared to wild type Rosα [4] | Change of MIC / inhibitory activity relative to wild-type roseocin (in words) ([3]; listed as RosαL8F)
Nisin [reference compound] | 0.0625 | 2 | – | – | – | – | – | –
GAGSGVLGTWGCCSCLPWYSGWTVCGLACNPGKPCKN (also: bicyclic or more (positions not given here)) [Roseocin L8W, Rosα variant L8W, modified by RosM, tested in combination with wild-type Rosβ] | 0.25 | 2 | two-fold lower MIC | improvement in the MIC | significantly improved inhibitory activity | – | – | –
INGAGSGVLGTLGCCSCLPWYSGWTVCGLACNPGKPCKN (also: bicyclic or more (positions not given here)) [Roseocin (wild-type)] | 0.5 | 2 | – | – | – | – | – | –
NGAGSGVLGTLGCCWCLPWYSGWTVCGLACNPGKPCKN (also: bicyclic or more (positions not given here)) [Roseocin S12W, Rosα variant S12W, modified by RosM, tested in combination with wild-type Rosβ] | 0.5 | > 16 | – | no improvement | – | – | – | –
NGAGSGVLGTFGCCSCLPWYSGWTVCGLACNPGKPCKN (also: bicyclic or more (positions not given here)) [Roseocin L8F, Rosα variant L8F, modified by RosM, tested in combination with wild-type Rosβ] | 0.5 | 0.5 | – | improvement in the MIC | – | four-fold lower MIC | improved significantly | significantly improved inhibitory activity
NGAGSGVLGTLGCCSCLPWYSGWTQCGLACNPGKPCKN (also: bicyclic or more (positions not given here)) [Roseocin V22Q, Rosα variant V22Q, modified by RosM, tested in combination with wild-type Rosβ] | > 8 | > 16 | – | loss of potency | – | – | – | –
